Measurements taken from the NIST ThermoML archive (doi:10.1007/s10765-005-8096-3).

Test: refractive index (Na D-line) (dimensionless); xn = mol fraction of the nth substance listed
Details: 101 kPa, Liquid, Standard Abbe refractometry

Cc1cc(C)cc(C)c1 [1,3,5-trimethylbenzene] + CCCCOC(C)=O
refractive index
Details	293.15 K	298.15 K	303.15 K	308.15 K	313.15 K
x2 = 0.0516	1.49409	1.4916	1.48907	1.48654	1.48399
x2 = 0.1002	1.48903	1.4866	1.48406	1.4816	1.47894
x2 = 0.1506	1.48392	1.48139	1.47885	1.47632	1.47373
x2 = 0.2009	1.4787	1.47618	1.47366	1.47112	1.4686
x2 = 0.2516	1.47339	1.4709	1.46844	1.46589	1.46337
x2 = 0.2995	1.4684	1.46588	1.46345	1.46088	1.45835
x2 = 0.3481	1.46333	1.46081	1.45838	1.4558	1.45332
x2 = 0.3998	1.4579	1.45539	1.45292	1.45039	1.44787
x2 = 0.4499	1.45266	1.45014	1.44772	1.44513	1.44264
x2 = 0.5012	1.44725	1.44474	1.44227	1.43973	1.43728
x2 = 0.5517	1.44194	1.43941	1.43693	1.43441	1.43194
x2 = 0.599	1.43693	1.4344	1.43191	1.42937	1.42693
x2 = 0.6518	1.43134	1.42882	1.42637	1.42379	1.42135
x2 = 0.702	1.42599	1.42348	1.42096	1.41847	1.41604
x2 = 0.7495	1.42089	1.41842	1.41595	1.41342	1.41096
x2 = 0.8007	1.41541	1.41296	1.4105	1.40803	1.40553
x2 = 0.8531	1.40984	1.40738	1.40488	1.40245	1.39998
x2 = 0.8998	1.40482	1.4024	1.39997	1.39751	1.39502
x2 = 0.9494	1.39954	1.3971	1.39467	1.39225	1.38972

CC(C)(C)c1ccccc1 [(1,1-dimethylethyl)benzene] + CCCCOC(C)=O
refractive index
Details	293.15 K	298.15 K	303.15 K	308.15 K	313.15 K
x2 = 0.0517	1.48818	1.48564	1.48328	1.48061	1.47812
x2 = 0.1	1.48411	1.48154	1.47905	1.47649	1.47384
x2 = 0.1522	1.4795	1.47702	1.47452	1.47204	1.46953
x2 = 0.1995	1.47531	1.47273	1.47031	1.4677	1.46521
x2 = 0.2511	1.47077	1.46811	1.4657	1.46309	1.46062
x2 = 0.3008	1.46621	1.4636	1.4612	1.45859	1.45614
x2 = 0.3516	1.46145	1.45891	1.45652	1.45387	1.45137
x2 = 0.4061	1.45636	1.45381	1.45141	1.4488	1.44635
x2 = 0.4489	1.45221	1.44966	1.44727	1.4447	1.44226
x2 = 0.4994	1.44728	1.44477	1.44234	1.43978	1.43736
x2 = 0.5499	1.44227	1.43976	1.43736	1.43476	1.43237
x2 = 0.607	1.43649	1.434	1.43155	1.42904	1.42656
x2 = 0.6496	1.43209	1.42958	1.42717	1.42461	1.42212
x2 = 0.7006	1.42687	1.42436	1.42195	1.41938	1.41686
x2 = 0.7489	1.42175	1.41927	1.41683	1.41427	1.41174
x2 = 0.8013	1.41615	1.41367	1.41122	1.40871	1.40625
x2 = 0.8509	1.41079	1.40829	1.40593	1.40331	1.4009
x2 = 0.9005	1.40535	1.40288	1.40048	1.39799	1.39547
x2 = 0.95	1.39982	1.39742	1.3949	1.39263	1.39007

CC(C)Cc1ccccc1 [(2-methylpropyl)benzene] + CCCCOC(C)=O
refractive index
Details	293.15 K	298.15 K	303.15 K	308.15 K	313.15 K
x2 = 0.056	1.48206	1.47965	1.47708	1.47442	1.47211
x2 = 0.1042	1.47812	1.47565	1.4731	1.47066	1.46813
x2 = 0.1619	1.47345	1.47097	1.4685	1.46595	1.4635
x2 = 0.201	1.47035	1.46781	1.46524	1.46268	1.46015
x2 = 0.2486	1.46644	1.46384	1.46128	1.45868	1.45618
x2 = 0.3027	1.4618	1.45922	1.45658	1.45405	1.45156
x2 = 0.3619	1.45664	1.45401	1.45147	1.44897	1.44641
x2 = 0.3994	1.4533	1.45072	1.44816	1.44564	1.4431
x2 = 0.4537	1.44838	1.44587	1.44328	1.44077	1.43826
x2 = 0.5056	1.44366	1.4411	1.43853	1.43602	1.43356
x2 = 0.5506	1.43942	1.43693	1.43443	1.43187	1.4294
x2 = 0.5973	1.43506	1.43254	1.43002	1.4275	1.42498
x2 = 0.6485	1.43012	1.42758	1.42505	1.42256	1.42003
x2 = 0.6954	1.42551	1.423	1.42052	1.41799	1.41549
x2 = 0.751	1.41999	1.41754	1.41506	1.41255	1.41004
x2 = 0.7981	1.41525	1.41278	1.4103	1.40782	1.40532
x2 = 0.8469	1.41021	1.40779	1.40535	1.4029	1.40036
x2 = 0.8995	1.40482	1.40235	1.39997	1.39757	1.39493
x2 = 0.9482	1.39966	1.3973	1.39479	1.39237	1.38994

CCCCOC(C)=O [butyl ethanoate] + CCc1ccccc1
refractive index
Details	293.15 K	298.15 K	303.15 K	308.15 K	313.15 K
x1 = 0.0544	1.48984	1.48716	1.48442	1.48172	1.47899
x1 = 0.1008	1.48485	1.48219	1.47946	1.47673	1.47401
x1 = 0.1488	1.4796	1.47693	1.47418	1.47152	1.46884
x1 = 0.2024	1.47382	1.47116	1.46843	1.4658	1.4631
x1 = 0.254	1.46832	1.46568	1.46302	1.46037	1.45768
x1 = 0.2929	1.46417	1.46155	1.4589	1.45623	1.45354
x1 = 0.3526	1.45799	1.45536	1.45263	1.45	1.44729
x1 = 0.3989	1.45314	1.45054	1.44782	1.44526	1.44253
x1 = 0.4448	1.44842	1.44582	1.44315	1.44053	1.43785
x1 = 0.5021	1.44254	1.43999	1.43733	1.43472	1.43207
x1 = 0.5505	1.43764	1.43508	1.43242	1.42983	1.4272
x1 = 0.6041	1.43221	1.42967	1.42703	1.42449	1.42191
x1 = 0.6456	1.42806	1.42552	1.42292	1.42036	1.41779
x1 = 0.7003	1.42266	1.42015	1.41759	1.41507	1.41252
x1 = 0.7555	1.41729	1.41481	1.41224	1.40974	1.4072
x1 = 0.8016	1.41282	1.41035	1.40784	1.40537	1.40283
x1 = 0.8511	1.40813	1.40566	1.4032	1.40068	1.39815
x1 = 0.9009	1.40339	1.40097	1.39849	1.39597	1.39349
x1 = 0.9505	1.39875	1.39633	1.39386	1.39139	1.38895
